Legend:
[1] = test system: perceived bitterness intensity of a coffee rated as having a high bitter intensity; assay: Sensory panel evaluation of perceived bitterness intensity of coffee brew; type: in vivo, human; details: compound added individually to high-bitter coffee (4-CQA about 177 mg/L, 5-CQA about 181 mg/L, 2-GA about 45 mg/L); eight trained panelists, nose clips, room temperature, duplicate; p<0.05
Description: 4-CQA (4-caffeoylquinic acid) (about 177 mg/L), 5-CQA (5-caffeoylquinic acid) (about 181 mg/L), and 2-GA (2-O-β-D-glucopyranosyl-atractyligenin) (about 45 mg/L) were added individually or as a group to a coffee rated as having a high bitter intensity. Five mL of each sample at room temperature was presented to experienced sensory panelists in 1 oz black cups labeled with 3-digit codes in random order. Eight trained panelists, recruited by Flavor Research and Education Center (FREC) at The Ohio State University, used nose clips during the evaluation in order to prevent interactions with olfactory responses. Between samples, panelists waited a minimum of 90 seconds and were asked to cleanse their palate using crackers and water. All evaluations were conducted in duplicate using Compusense Cloud software (Compusense Inc., Guelph, ON, Canada). […] FIGS. 1 and 2.

[2] = test system: taste attributes in isolation; assay: Taste attributes of the compounds in isolation, by consensus of experienced sensory panelists; type: in vivo, human; details: same concentrations as in coffee, 5 experienced panelists by consensus
Description: The taste attributes 4-CQA, 5-CQA, and 2-GA in isolation were further evaluated by 5 experienced sensory panelists by consensus. Each compound was dissolved in 5 mL nanopure water and 5 mL buffer (0.05 M sodium phosphate butter adjusted to pH 5.77 with 0.1 M citric acid) at the same concentrations described above. […] This led to the confirmation that 4-CQA, 5-CQA, and 2-O-β-D-glucopyranosyl-atractyligenin were bitter modulators that suppressed perception.

[3] = dissolved in 5 mL buffer (0.05 M sodium phosphate adjusted to pH 5.77 with 0.1 M citric acid)
[4] = dissolved in 5 mL nanopure water

Q: How did the “perceived bitterness intensity of the coffee brew” value (from here on “perceived bitterness intensity”) [1] turn out when `C=C1[C@@H]2CCC3[C@@](CC[C@@H]4[C@H](C(=O)O)C[C@@H](O[C@@H]5O[C@H](CO)[C@@H](O)[C@H](O)[C@H]5O)C[C@@]34C)(C2)[C@H]1O` (stereo partly drawn) [2-GA, 2-O-β-D-glucopyranosyl-atractyligenin] was run?
A: significantly reduce

Q: What about the “taste attribute in isolation” value [2, 3] of the same compound?
A: no obvious taste character

Q: And the “taste attribute in isolation” value [2, 4]?
A: no obvious taste character

Q: Which “perceived bitterness intensity” value [1] does the source give for `O=C(/C=C/c1ccc(O)c(O)c1)O[C@H]1C(O)C[C@](O)(C(=O)O)C[C@H]1O` (stereo partly drawn) [4-CQA, 4-O-caffeoylquinic acid] here?
A: significantly reduce

Q: What about the “taste attribute in isolation” value [2, 3] of the same compound?
A: very weak sour taste

Q: And the “taste attribute in isolation” value [2, 4]?
A: very weak sour taste

Q: `O=C(/C=C/c1ccc(O)c(O)c1)O[C@@H]1C[C@@](O)(C(=O)O)C[C@@H](O)[C@@H]1O` [5-CQA, 5-O-caffeoylquinic acid] was tested. Which “perceived bitterness intensity” value [1] did it give?
A: significantly reduce

Q: What about the “taste attribute in isolation” value [2, 3] of the same compound?
A: very weak sour taste

Q: What about the “taste attribute in isolation” value [2, 4] of the same compound?
A: very weak sour taste
